The record followed here is patent US9796711B2, “Substituted pyrazolo[3,4-b]pyridin-6-carboxylic acids and method of use” (AbbVie S.àr.l., priority 2015, dated 2017).

For orientation: EC50 means the concentration needed to bring the measured effect to its halfway point.

This experiment addresses T1, ΔF508-CFTR (Homo sapiens, UniProt P13569, DEL508-508).
T1 construct: host or cells: CFBE41o-, doxycycline-inducible
As to the kind of experiment: CFTR cell surface levels using HRP-tagged ΔF508-CFTR expressing CFBE cells, in the presence of a co-corrector. To be noted: HRP-tagged ΔF508-CFTR expressing CFBE cells, in the presence of 3 μM co-corrector; for EC50: read-out: EC50. The class given is cell-based. The method, boiled down:
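Cells were seeded with 0.5 μg/mL doxycycline and held 68 h at 37 °C. Test compounds plus 3 μM co-corrector (final 0.1% DMSO) were then added for 20 h at 33 °C. Washed cells received HRP substrate, and luminescence was normalized between DMSO and 3 μM co-corrector controls.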

T1 sequence (P13569 with tags, fused parts or gaps DEL508-508): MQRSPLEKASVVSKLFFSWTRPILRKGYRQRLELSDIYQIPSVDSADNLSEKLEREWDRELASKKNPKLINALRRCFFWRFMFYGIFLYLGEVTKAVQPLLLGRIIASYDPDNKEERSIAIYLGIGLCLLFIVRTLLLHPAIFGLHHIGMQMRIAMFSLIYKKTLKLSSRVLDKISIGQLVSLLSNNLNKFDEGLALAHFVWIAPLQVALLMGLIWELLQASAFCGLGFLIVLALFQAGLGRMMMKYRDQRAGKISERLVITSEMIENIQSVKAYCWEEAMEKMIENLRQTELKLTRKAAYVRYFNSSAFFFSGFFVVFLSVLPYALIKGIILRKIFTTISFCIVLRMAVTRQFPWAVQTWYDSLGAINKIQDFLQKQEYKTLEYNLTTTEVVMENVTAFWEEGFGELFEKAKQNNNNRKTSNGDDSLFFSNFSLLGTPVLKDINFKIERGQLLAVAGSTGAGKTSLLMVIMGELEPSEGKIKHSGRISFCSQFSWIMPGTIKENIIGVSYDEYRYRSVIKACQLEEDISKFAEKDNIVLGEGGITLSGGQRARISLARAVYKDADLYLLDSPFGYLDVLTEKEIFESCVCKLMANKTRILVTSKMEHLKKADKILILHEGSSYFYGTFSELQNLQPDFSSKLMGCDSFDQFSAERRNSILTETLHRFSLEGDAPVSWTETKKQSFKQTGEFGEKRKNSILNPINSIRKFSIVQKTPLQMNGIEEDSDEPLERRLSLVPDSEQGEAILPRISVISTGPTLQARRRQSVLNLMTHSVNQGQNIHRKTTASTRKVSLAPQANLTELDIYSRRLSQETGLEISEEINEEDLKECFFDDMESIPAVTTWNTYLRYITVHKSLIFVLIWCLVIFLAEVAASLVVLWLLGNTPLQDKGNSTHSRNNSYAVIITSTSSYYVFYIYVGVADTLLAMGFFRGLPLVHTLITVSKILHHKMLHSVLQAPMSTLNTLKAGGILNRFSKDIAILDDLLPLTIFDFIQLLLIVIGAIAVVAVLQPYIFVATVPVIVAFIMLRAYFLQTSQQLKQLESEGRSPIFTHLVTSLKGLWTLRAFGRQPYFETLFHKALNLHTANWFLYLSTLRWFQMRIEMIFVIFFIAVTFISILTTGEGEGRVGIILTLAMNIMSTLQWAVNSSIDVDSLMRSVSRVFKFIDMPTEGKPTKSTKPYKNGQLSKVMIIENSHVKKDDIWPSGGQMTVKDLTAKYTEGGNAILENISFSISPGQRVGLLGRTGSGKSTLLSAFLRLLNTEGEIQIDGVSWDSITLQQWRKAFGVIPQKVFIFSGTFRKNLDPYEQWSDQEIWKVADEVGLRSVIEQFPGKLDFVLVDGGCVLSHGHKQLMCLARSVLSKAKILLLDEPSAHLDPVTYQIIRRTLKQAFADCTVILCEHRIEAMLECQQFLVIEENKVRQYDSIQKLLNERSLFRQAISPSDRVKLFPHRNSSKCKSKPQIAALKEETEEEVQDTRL

Regarding `CCOCC(=O)N1CCN(c2cc(C(=O)O)nc3c2c(C2CCC2)nn3-c2ccccc2)CC1` [compound 696, 3-cyclobutyl-4-[4-(ethoxyacetyl)piperazin-1-yl]-1-phenyl-1H-pyrazolo[3,4-b]pyridine-6-carboxylic acid], the “% Activation” value was determined as 346.8% and the EC50 came to 1670 nM.
For the compound `CN1CCCN(c2cc(C(=O)O)nc3c2c(C2CCC2)nn3-c2ccccc2)CC1` [compound 702, 3-cyclobutyl-4-(4-methyl-1,4-diazepan-1-yl)-1-phenyl-1H-pyrazolo[3,4-b]pyridine-6-carboxylic acid], the “% Activation” value turned out to be 214.1% and the concentration giving a half-maximal response (EC50) came to 1670 nM.
Turning to `N#CC1COC2(C1)CN(c1cc(C(=O)O)nc3c1c(C1CCC1)nn3-c1ccccc1)C2` (stereo not shown) [compound 716, 4-(7-cyano-5-oxa-2-azaspiro[3.4]octan-2-yl)-3-cyclobutyl-1-phenyl-1H-pyrazolo[3,4-b]pyridine-6-carboxylic acid], the “% Activation” value was found to be 282.9% and the EC50 was determined as 772 nM.
The corresponding values for `CN1CCOC(C2CN(c3cc(C(=O)O)nc4c3c(C3CCC3)nn4-c3ccccc3)C2)C1` (stereo not shown) [compound 723, 3-cyclobutyl-4-[3-(4-methylmorpholin-2-yl)azetidin-1-yl]-1-phenyl-1H-pyrazolo[3,4-b]pyridine-6-carboxylic acid] are 344.8% and 1050 nM.
On to `CC(C)(O)C1CCN(c2cc(C(=O)O)nc3c2c(C2CCC2)nn3-c2ccccc2)CC1` [compound 659, 3-cyclobutyl-4-[4-(2-hydroxypropan-2-yl)piperidin-1-yl]-1-phenyl-1H-pyrazolo[3,4-b]pyridine-6-carboxylic acid], for which the “% Activation” value is reported as 424.5% and the EC50 was determined as 69.5 nM.
The corresponding values for `CN1CC(Oc2cc(C(=O)O)nc3c2c(C2CCC2)nn3-c2ccccc2)C1` [compound 601, 3-cyclobutyl-4-[(1-methylazetidin-3-yl)oxy]-1-phenyl-1H-pyrazolo[3,4-b]pyridine-6-carboxylic acid] are 173.6% and 2480 nM.
In the same order, the values of `COCCN1CCN(C2CCN(c3cc(C(=O)O)nc4c3c(C(C)C)nn4-c3ccc(F)cc3)CC2)CC1` [compound 746, 1-(4-fluorophenyl)-4-{4-[4-(2-methoxyethyl)piperazin-1-yl]piperidin-1-yl}-3-(propan-2-yl)-1H-pyrazolo[3,4-b]pyridine-6-carboxylic acid] are 418.4% and 549 nM.
Take `O=C(O)c1cc(OC2CCC2)c2c(C3CCC3)nn(-c3ccccc3)c2n1` [compound 585, 3-cyclobutyl-4-(cyclobutyloxy)-1-phenyl-1H-pyrazolo[3,4-b]pyridine-6-carboxylic acid]: the “% Activation” value stood at 245.3% and the concentration for a half-maximal effect (EC50) worked out at 2490 nM.
`O=C(O)c1cc(N2CCCN(CC3CCCO3)CC2)c2c(C3CCC3)nn(-c3ccccc3)c2n1` (stereo not shown) [compound 572, 3-cyclobutyl-4-{4-[(oxolan-2-yl)methyl]-1,4-diazepan-1-yl}-1-phenyl-1H-pyrazolo[3,4-b]pyridine-6-carboxylic acid]: the “% Activation” value came to 330.8% and the EC50 was 1190 nM.
Turning to `Cc1nn(-c2ccccc2)c2nc(C(=O)O)cc(-c3ccc(N(C)C4CCOCC4)cc3)c12` [compound 110, 3-methyl-4-{4-[methyl(oxan-4-yl)amino]phenyl}-1-phenyl-1H-pyrazolo[3,4-b]pyridine-6-carboxylic acid], the “% Activation” value was 397.65% and the EC50 is 536 nM.
As for `O=C(O)c1cc(N2CCC3(C2)OCCO3)c2c(C3CCC3)nn(-c3ccccc3)c2n1` [compound 713, 3-cyclobutyl-4-(1,4-dioxa-7-azaspiro[4.4]nonan-7-yl)-1-phenyl-1H-pyrazolo[3,4-b]pyridine-6-carboxylic acid], the “% Activation” value is listed as 243.5% and the concentration giving a half-maximal response (EC50) amounted to 659 nM.
Turning to `CC(C)c1nn(-c2ccc(F)cc2)c2nc(C(=O)O)cc(N3CCC(CCCN4CCCC4)CC3)c12` [compound 749, 1-(4-fluorophenyl)-3-(propan-2-yl)-4-{4-[3-(pyrrolidin-1-yl)propyl]piperidin-1-yl}-1H-pyrazolo[3,4-b]pyridine-6-carboxylic acid], the “% Activation” value was found to be 387% and the EC50 worked out at 277 nM.
For the compound `CC1(N2CCCCC2)CCN(c2cc(C(=O)O)nc3c2c(C2CCC2)nn3-c2ccccc2)CC1` [compound 698, 3-cyclobutyl-4-(4′-methyl [1,4′-bipiperidin]-1′-yl)-1-phenyl-1H-pyrazolo[3,4-b]pyridine-6-carboxylic acid], the “% Activation” value was 242.7% and the EC50 is 745 nM.
In the same order, the values of `CCN(C1CCN(c2cc(C(=O)O)nc3c2c(C(C)C)nn3-c2ccc(F)cc2)CC1)C1COC1` [compound 750, 4-{4-[ethyl(oxetan-3-yl)amino]piperidin-1-yl}-1-(4-fluorophenyl)-3-(propan-2-yl)-1H-pyrazolo[3,4-b]pyridine-6-carboxylic acid] are 394.1% and 503 nM.
In the same order, the values of `CC(C)c1nn(C2CCCCC2)c2nc(C(=O)O)cc(N3CCC(C#N)CC3)c12` [compound 263, 4-(4-cyanopiperidin-1-yl)-1-cyclohexyl-3-(propan-2-yl)-1H-pyrazolo[3,4-b]pyridine-6-carboxylic acid] are 334.25% and 1130 nM.
In the case of `O=C(O)c1cc(N2C[C@@H](O)[C@H](O)C2)c2c(C3CCC3)nn(-c3ccccc3)c2n1` [compound 445, 3-cyclobutyl-4-[(3R,4R)-3,4-dihydroxypyrrolidin-1-yl]-1-phenyl-1H-pyrazolo[3,4-b]pyridine-6-carboxylic acid], the “% Activation” value is 127.85% and the concentration for a half-maximal effect (EC50) was more than 10000 nM.
In the case of `O=C(O)c1cc(N2CCC(CCCN3CCCCC3)CC2)c2c(C3CCC3)nn(-c3ccccc3)c2n1` [compound 732, 3-cyclobutyl-1-phenyl-4-{4-[3-(piperidin-1-yl)propyl]piperidin-1-yl}-1H-pyrazolo[3,4-b]pyridine-6-carboxylic acid], the “% Activation” value amounted to 409.6% and the EC50 is 119 nM.
In the same order, the values of `CCOCC1(F)CCN(c2cc(C(=O)O)nc3c2c(C(C)C)nn3-c2ccc(F)cc2)CC1` [compound 666, 4-[4-(ethoxymethyl)-4-fluoropiperidin-1-yl]-1-(4-fluorophenyl)-3-(propan-2-yl)-1H-pyrazolo[3,4-b]pyridine-6-carboxylic acid] are 338.35% and 253 nM.
In the case of `O=C(O)c1cc(N2CC(N3CCC(N4CCOCC4)CC3)C2)c2c(C3CCC3)nn(-c3ccccc3)c2n1` [compound 725, 3-cyclobutyl-4-{3-[4-(morpholin-4-yl)piperidin-1-yl]azetidin-1-yl}-1-phenyl-1H-pyrazolo[3,4-b]pyridine-6-carboxylic acid], the “% Activation” value was found to be 173.2% and the EC50 came to 869 nM.
In the same order, the values of `O=C(O)c1cc(N2CCC[C@@H](O)C2)c2c(C3CCC3)nn(-c3ccccc3)c2n1` [compound 706, 3-cyclobutyl-4-[(3R)-3-hydroxypiperidin-1-yl]-1-phenyl-1H-pyrazolo[3,4-b]pyridine-6-carboxylic acid] are 284.4% and 488 nM.
